Test results from PMC11684019, “Unveiling the Antimycobacterial Potential of Novel 4-Alkoxyquinolines: Insights into Selectivity, Mechanism of Action, and In Vivo Exposure” (Journal of Medicinal Chemistry, 2024).
In brackets after ≈: the same amount, converted by molar mass. Where two headings read alike, the source gives them in different places.

Assays:
HepG2 cells [1] = details: read-out: CC50 HepG2; MTT method, 72 h
[2] = system: M. tuberculosis H37Rv strain; experiment: microbe, parasite or virus in culture; format: cell-based, Mycobacterium tuberculosis
HepG2 cells [3] = details: read-out: CC50 HepG2; Neutral Red method, 72 h
[4] = system: M. tuberculosis strain PT12 (MDR clinical isolate); format: cell-based, Mycobacterium tuberculosis
Vero cells [5] = details: read-out: CC50 Vero; Neutral Red method, 72 h
[6] = system: M. tuberculosis strain PT2 (MDR clinical isolate); format: cell-based, Mycobacterium tuberculosis
Vero cells [7] = details: read-out: CC50 Vero; MTT method, 72 h
[8] = system: M. tuberculosis strain PT20 (MDR clinical isolate); format: cell-based, Mycobacterium tuberculosis
[9] = Aqueous solubility (UHPLC-DAD); details: 25 °C, 4 h; for Solubility pH 1.2: 0.1 M HCl solution; for Solubility pH 9.1: 0.1 M NH4HCO3 solution; for Solubility pH 7.4: PBS
[10] = system: M. tuberculosis H37Rv strain in murine macrophage RAW 264.7 cells; format: cell-based, Mycobacterium tuberculosis
in vitro = details: PAMPA, pH 7.4
Mtb = details: cited from earlier work
[11] = M. tuberculosis H37Rv, resazurin-based assay

Compound: 4-Bromo-N-(3-((6-methoxy-2-methylquinolin-4-yl)oxy)propyl)aniline [8d]
- CC50 (HepG2 cells [1]): 15.3 µM
- MIC [2, 11]: 0.10 µM
- CC50 (HepG2 cells [3]): 16.8 µM
- MIC PT12 [4]: <0.05 µM
- CC50 (Vero cells [5]): 12.8 µM
- MIC PT2 [6]: <0.05 µM
- CC50 (Vero cells [7]): > 20 µM
- MIC PT20 [8]: <0.05 µM

Compound: 4-Ethyl-N-(3-((6-methoxy-2-methylquinolin-4-yl)oxy)propyl)aniline [8i]
- CC50 (HepG2 cells [1]): 0.3 µM
- MIC [2, 11]: 0.06 µM
- CC50 (HepG2 cells [3]): 8.1 µM
- MIC PT12 [4]: <0.06 µM
- CC50 (Vero cells [5]): 4.2 µM
- MIC PT2 [6]: <0.06 µM
- CC50 (Vero cells [7]): < 1 µM
- MIC PT20 [8]: <0.06 µM

Compound: 4-Iodo-N-(3-((6-methoxy-2-methylquinolin-4-yl)oxy)propyl)aniline [8e]
- CC50 (HepG2 cells [1]): 10.6 µM
- MIC [2, 11]: 0.09 µM
- CC50 (HepG2 cells [3]): 12.8 µM
- MIC PT12 [4]: <0.05 µM
- CC50 (Vero cells [5]): 7.5 µM
- MIC PT2 [6]: <0.05 µM
- CC50 (Vero cells [7]): 8.2 µM
- MIC PT20 [8]: <0.05 µM

Compound: COc1ccc2nc(C)cc(OCCCNc3ccccc3)c2c1 [8a, N-(3-((6-methoxy-2-methylquinolin-4-yl)oxy)propyl)aniline]
- MIC [2, 11]: 0.25 µM (≈ 0.0806 µg/mL)

Compound: COc1ccc2nc(C)cc(OCCCNc3ccc(F)cc3)c2c1 [8b, 4-Fluoro-N-(3-((6-methoxy-2-methylquinolin-4-yl)oxy)propyl)aniline]
- MIC [2, 11]: 0.47 µM (≈ 0.16 µg/mL)

Compound: COc1ccc2nc(C)cc(OCCCNc3ccc(Cl)cc3)c2c1 [8c, 4-Chloro-N-(3-((6-methoxy-2-methylquinolin-4-yl)oxy)propyl)aniline]
- MIC [2, 11]: 0.22 µM (≈ 0.0785 µg/mL)

Compound: COc1ccc2nc(C)cc(OCCCNc3ccc(C(F)(F)F)cc3)c2c1 [8f, N-(3-((6-methoxy-2-methylquinolin-4-yl)oxy)propyl)-4-(trifluoromethyl)aniline]
- MIC [2, 11]: 3.20 µM (≈ 1.25 µg/mL)

Compound: COc1ccc2nc(C)cc(OCCCNc3ccc(OC(F)(F)F)cc3)c2c1 [8g, N-(3-((6-methoxy-2-methylquinolin-4-yl)oxy)propyl)-4-(trifluoromethoxy)aniline]
- MIC [2, 11]: 0.20 µM (≈ 0.0813 µg/mL)

Compound: COc1ccc2nc(C)cc(OCCCNc3ccc(C)cc3)c2c1 [8h, N-(3-((6-methoxy-2-methylquinolin-4-yl)oxy)propyl)-4-methylaniline]
- MIC [2, 11]: 0.24 µM (≈ 0.0807 µg/mL)

Compound: COc1ccc2nc(C)cc(OCCCNc3ccc(C(C)C)cc3)c2c1 [8j, 4-Isopropyl-N-(3-((6-methoxy-2-methylquinolin-4-yl)oxy)propyl)aniline]
- MIC [2, 11]: 0.11 µM (≈ 0.0401 µg/mL)

Compound: Cc1cc(OCCCNc2ccc(Cl)cc2)c2cc(Cl)ccc2n1 [8k, 4-Chloro-N-(3-((6-chloro-2-methylquinolin-4-yl)oxy)propyl)aniline]
- MIC [2, 11]: 0.22 µM (≈ 0.0795 µg/mL)

Compound: Cc1cc(OCCCNc2ccc(OC(F)(F)F)cc2)c2cc(Cl)ccc2n1 [8m, N-(3-((6-Chloro-2-methylquinolin-4-yl)oxy)propyl)-4-(trifluoromethoxy)aniline]
- MIC [2, 11]: 0.19 µM (≈ 0.0781 µg/mL)

Compound: CCc1cc(OCCCNc2ccc(Cl)cc2)c2cc(Cl)ccc2n1 [8o, 4-Chloro-N-(3-((6-chloro-2-ethylquinolin-4-yl)oxy)propyl)aniline]
- MIC [2, 11]: 0.11 µM (≈ 0.0413 µg/mL)

Compound: CCc1cc(OCCCNc2ccc(Br)cc2)c2cc(Cl)ccc2n1 [8p, 4-Bromo-N-(3-((6-chloro-2-ethylquinolin-4-yl)oxy)propyl)aniline]
- MIC [2, 11]: 0.38 µM (≈ 0.16 µg/mL)

Compound: CCc1ccc(NCCCOc2cc(CC)nc3ccc(Cl)cc23)cc1 [8q, N-(3-((6-chloro-2-ethylquinolin-4-yl)oxy)propyl)-4-ethylaniline]
- MIC [2, 11]: 0.22 µM (≈ 0.0812 µg/mL)

Compound: Cc1cc(OCCCNc2ccc(Cl)cc2)c2cc(Br)ccc2n1 [8r, N-(3-((6-bromo-2-methylquinolin-4-yl)oxy)propyl)-4-chloroaniline]
- CC50 (HepG2 cells [1]): > 20 µM
- MIC [2, 11]: 0.10 µM (≈ 0.0406 µg/mL)
- CC50 (HepG2 cells [3]): > 20 µM
- MIC PT12 [4]: <0.05 µM
- Solubility pH 1.2 [9]: >2,470 μM
- Solubility pH 9.1 [9]: 57.18 μM
- Solubility pH 7.4 [9]: 15.0 μM
- CC50 (Vero cells [5]): 11.2 µM
- MIC PT2 [6]: <0.05 µM
- CC50 (Vero cells [7]): 19.8 µM
- MIC PT20 [8]: <0.05 µM

Compound: Cc1cc(OCCCNc2ccc(Br)cc2)c2cc(Br)ccc2n1 [8s, 4-Bromo-N-(3-((6-bromo-2-methylquinolin-4-yl)oxy)propyl)aniline]
- MIC [2, 11]: 0.35 µM (≈ 0.158 µg/mL)

Compound: CCc1cc(OCCCNc2ccc(Cl)cc2)c2cc(Br)ccc2n1 [8u, N-(3-((6-bromo-2-ethylquinolin-4-yl)oxy)propyl)-4-chloroaniline]
- MIC [2, 11]: 0.19 µM (≈ 0.0798 µg/mL)

Compound: CCc1cc(OCCCNc2ccc(Br)cc2)c2cc(Br)ccc2n1 [8v, 4-Bromo-N-(3-((6-bromo-2-ethylquinolin-4-yl)oxy)propyl)aniline]
- MIC [2, 11]: 0.34 µM (≈ 0.158 µg/mL)

Compound: NNC(=O)c1ccncc1 [INH, isoniazid, reference compound]
- Kind of effect on intracellular growth of M. tuberculosis H37Rv [10]: bactericidal effect
- Log10 CFU/well (Mean ± SD) [10]: 2.25 ± 0.15 ^c^, ^d Log10 CFU/well
- Log10 CFU/well (Mean ± SD) ([10]; listed as isoniazid): 2.25
- MIC ([2]; Mycobacterium tuberculosis, H37RV): 2.3 µM (≈ 0.315 µg/mL)

Compound: CCc1nc2ccc(Cl)cn2c1C(=O)NCc1ccc(N2CCC(c3ccc(OC(F)(F)F)cc3)CC2)cc1 [Q203, telacebec, reference compound]
- MIC ([2]; Mycobacterium tuberculosis, M. tuberculosis H37Rv, resazurin-based assay): 0.009 µM (≈ 0.00501 µg/mL)

Compound: C=CCc1ccccc1OCC(O)CNC(C)C (stereo not shown) [alprenolol]
- Papp at 5 h, 10 µM (in vitro): 4.1 ×10⁻⁶ cm/s

Compound: COc1ccc2nc(C)cc(OCC(=O)Nc3ccccc3OC)c2c1 [compound 1]
- MIC (Mtb) (Mtb): 0.44 µM (≈ 0.155 µg/mL)

Compound: COc1ccc2nc(C)cc(OCC(=O)Nc3ccc4ccccc4c3)c2c1 [compound 2]
- MIC (Mtb) (Mtb): 0.05 µM (≈ 0.0186 µg/mL)

Compound: CCCc1ccc(NC(=O)COc2cc(C)nc3ccc(OC)cc23)cc1 [compound 3]
- MIC (Mtb) (Mtb): 0.05 µM (≈ 0.0182 µg/mL)

Compound: COc1ccc2nc(C)cc(OCc3ccc(Cl)c(Cl)c3)c2c1 [compound 4]
- MIC (Mtb) (Mtb): 0.3 µM (≈ 0.104 µg/mL)

Compound: COc1ccc2nc(C)cc(OCC(=O)c3cccc(Cl)c3)c2c1 [compound 5]
- MIC (Mtb) (Mtb): 1.8 µM (≈ 0.615 µg/mL)

Compound: N-(3-((6-Chloro-2-methylquinolin-4-yl)oxy)propyl)-4-ethylaniline [8n]
- MIC [2, 11]: 0.03 µM
- MIC PT12 [4]: <0.06 µM
- Solubility pH 1.2 [9]: 200 μM
- Solubility pH 9.1 [9]: 0.37 μM
- Solubility pH 7.4 [9]: 0.06 μM
- MIC PT2 [6]: <0.06 µM
- MIC PT20 [8]: <0.06 µM

Compound: N-(3-((6-bromo-2-ethylquinolin-4-yl)oxy)propyl)-4-ethylaniline [8w]
- CC50 (HepG2 cells [1]): > 20 µM
- MIC [2, 11]: 0.10 µM
- CC50 (HepG2 cells [3]): 8.3 µM
- MIC PT12 [4]: <0.05 µM
- CC50 (Vero cells [5]): 9.1 µM
- MIC PT2 [6]: <0.05 µM
- CC50 (Vero cells [7]): > 20 µM
- MIC PT20 [8]: <0.05 µM
